Like-named read-outs stand apart in the source and are kept apart here.
Tests used:
HCV genotype 1a replicon = assay: HCV replicon assay, genotype 1a (cell ELISA for NS3/4A); format: cell-based, hepatitis C virus
Description: (§1) Measurement of inhibition by compounds was performed using the HCV replicon system. Several different replicons encoding different HCV genotypes or mutations were used. In addition, potency measurements were made using different formats of the replicon assay, including different ways of measurements and different plating formats. See Jan M. Vrolijk et al., A replicons-based bioassay for the measurement of interferons in patients with chronic hepatitis C, 110 J. VIROLOGICAL METHODS 201 (2003); Steven S. Carroll et al., Inhibition of Hepatitis C Virus RNA Replication by 2′-Modified Nucleoside Analogs, 278 (14) J. BIOLOGICAL CHEMISTRY 11979 (2003). However, the underlying principles are common to all of these determinations, and are outlined below.
(§2) Stable neomycin phosphotransferase encoding replicons-harboring cell lines were used, so all cell lines were maintained under G418 selection prior to the assay. Potency was deteremined using a cell ELISA assay with an antibody to the replicons encoded NS3/4a protease. See Caterina Trozzi et al., In Vitro Selection and Characterization of Hepatitis C Virus Serine Protease Variants Resistant to an Active-Site Peptide Inhibitor, 77 (6) J. Virol. 3669 (2003). To initiate an assay, replicon cells were plated in the presence of a dilution series of test compound in the absence of G418. Typically, the assays were performed in a 96-well plate formate for manual operation, or a 384-well plate format for automated assay. Replicon cells and compound were incubated for 96 hours. At the end of the assay, cells were washed free of media and compound, and the cells were then lysed. RNA was quantified indirectly through detection of replicon-encoded NS3/4A protein levels, through an ELISA-based assay with an antibody specific for NS3/4A. IC50 determinations were calculated as a percentage of a DMSO control by fitting the data to a four-parameter fit function and the data obtained for genotypes 1a and 1b using this method is provided in the table below.

HCV genotype 1b replicon = assay: HCV replicon assay, genotype 1b (cell ELISA for NS3/4A); format: cell-based, hepatitis C virus
Description: as §1, §2

[1] = Hepatitis C virus, 96 h, read-out: 1a IC50 (nM), genotype 1a replicon cells, 96 hours incubation, NS3/4A ELISA
[2] = Hepatitis C virus, 96 h, read-out: 1b IC50 (nM), genotype 1b replicon cells, 96 hours incubation, NS3/4A ELISA
[3] = read-out: 1a IC50, genotype 1a replicon cells, 96 hours incubation, NS3/4A ELISA

| Structure (SMILES) | IC50 (HCV genotype 1a replicon; [1]) [nM] | IC50 (HCV genotype 1b replicon; [2]) [nM] | IC50 (HCV genotype 1a replicon; [3]) [nM] | IC50 (HCV genotype 1b replicon; read-out: 1b IC50, genotype 1b replicon cells, 96 hours incubation, NS3/4A ELISA) [nM] |
| --- | --- | --- | --- | --- |
| CNC(=O)c1c(-c2ccc(F)nc2)oc2cc(N(C)S(C)(=O)=O)c(-c3ccc4c(n3)-c3cc5c(F)cccc5n3CC4)cc12 [Example 15] | 3.41 | 5.09 |  |  |
| CNC(=O)c1c(-c2ccc(F)cc2)oc2cc(N(C)S(C)(=O)=O)c(-c3ncc4c(n3)-c3cc5c(F)cccc5n3CC4)cc12 [Example 63, 5-(11-fluoro-5,6-dihydropyrimido[4′,5′:3,4]pyrido[1,2-a]indol-2-yl)-2-(4-fluorophenyl)-N-methyl-6-(N-methylmethylsulfonamido)benzofuran-3-carboxamide] | 4.34 | 3.28 |  |  |
| CNC(=O)c1c(-n2ccccc2=O)oc2cc(N(C)S(C)(=O)=O)c(-c3ccc4c(n3)-c3cc5c(F)cccc5n3CC4)cc12 [Example 34] | 5.38 | 4.66 |  |  |
| CNC(=O)c1c(-c2ccc(F)cc2)oc2cc(N(C)S(C)(=O)=O)c(-c3ccc4ccn5c6ccccc6c(C)c5c4n3)cc12 [Example 79, 2-(4-fluorophenyl)-N-methyl-5-(12-methylindolo[1,2-h][1,7]naphthyridin-2-yl)-6-(N-methylmethylsulfonamido)benzofuran-3-carboxamide] | 93.8 | 77.3 |  |  |
| CNC(=O)c1c(-c2ccc(F)cc2)oc2cc(N(C)S(C)(=O)=O)c(-c3ccc4c(n3)-c3cc5c(F)cccc5n3CCC4)cc12 [Example 72, 5-(12-fluoro-6,7-dihydro-5H-pyrido[2′,3′:3,4]azepino[1,2-a]indol-2-yl)-2-(4-fluorophenyl)-N-methyl-6-(N-methylmethylsulfonamido)benzofuran-3-carboxamide] | 3.71 | 4.29 |  |  |
| CNC(=O)c1c(-c2ccc(F)cc2)oc2cc(N(C)S(C)(=O)=O)c(-c3cc4c(cn3)CC(C)n3c-4cc4c(F)cccc43)cc12 (single isomer, unassigned) [Example 41, (R or S)-5-(11-fluoro-6-methyl-5,6-dihydroindolo[2,1-a][2,6]naphthyridin-2-yl)-2-(4-fluorophenyl)-N-methyl-6-(N-methylmethylsulfonamido)benzofuran-3-carboxamide] |  | 6.33 | 19.3 |  |
| CNC(=O)c1c(-c2ccc(OC(F)F)nc2)oc2cc(N(C)S(C)(=O)=O)c(-c3ccc4c(n3)-c3cc5c(F)cccc5n3CC4)cc12 [Example 2] | 2.09 | 3.9 |  |  |
| CNC(=O)c1c(-c2nocc2C)oc2cc(N(C)S(C)(=O)=O)c(-c3ccc4c(n3)-c3cc5c(F)cccc5n3CC4)cc12 [Example 35, 5-(11-fluoro-5,6-dihydroindolo[1,2-h][1,7]naphthyridin-2-yl)-N-methyl-2-(4-methylisoxazol-3-yl)-6-(N-methylmethylsulfonamido)benzofuran-3-carboxamide] | 3.28 | 5.19 |  |  |
| CNC(=O)c1c(-c2ccc(F)cc2)oc2cc(N(C)S(C)(=O)=O)c(-c3cc4c(cn3)C(C)Cn3c-4cc4c(F)cccc43)cc12 (single isomer, unassigned) [Example 60, (R or S)-5-(11-fluoro-5-methyl-5,6-dihydroindolo[2,1-a][2,6]naphthyridin-2-yl)-2-(4-fluorophenyl)-N-methyl-6-(N-methylmethylsulfonamido)benzofuran-3-carboxamide] |  | 10.1 | 5 |  |
| CNC(=O)c1c(-c2cnn3c2CCC3)oc2cc(N(C)S(C)(=O)=O)c(-c3ccc4c(n3)-c3cc5c(F)cccc5n3CC4)cc12 [Example 19] | 56.9 | 52.3 |  |  |
| CNC(=O)c1c(-c2c(C)n[nH]c2C)oc2cc(N(C)S(C)(=O)=O)c(-c3ccc4c(n3)-c3cc5c(F)cccc5n3CC4)cc12 [Example 26] | 69.3 | 84.4 |  |  |
| CNC(=O)c1c(-c2cnc3c(c2)OCCO3)oc2cc(N(C)S(C)(=O)=O)c(-c3ccc4c(n3)-c3cc5c(F)cccc5n3CC4)cc12 [Example 8] | 580 | 122 |  |  |
| CNC(=O)c1c(-c2ccc(F)cc2)oc2cc(N(C)S(C)(=O)=O)c(-c3ccc4c(n3)-c3cc5c(F)cccc5n3C4)cc12 [Example 88, 5-(10-fluoro-5H-pyrido[2′,3′:3,4]pyrrolo[1,2-a]indol-2-yl)-2-(4-fluorophenyl)-N-methyl-6-(N-methylmethylsulfonamido)benzofuran-3-carboxamide] | 8.73 | 9.43 |  |  |
| CNC(=O)c1c(-c2ccc(F)cc2)oc2cc(N(C)S(C)(=O)=O)c(-c3cnc4c(c3)-c3cc5c(F)cccc5n3CC4)cc12 [Example 43, 5-(11-fluoro-5,6-dihydroindolo[2,1-f][1,6]naphthyridin-2-yl)-2-(4-fluorophenyl)-N-methyl-6-(N-methylmethylsulfonamido)benzofuran-3-carboxamide] | 1.74 | 3.7 |  |  |
| CNC(=O)c1c(-c2ccc(F)cc2)oc2cc(N(C)S(C)(=O)=O)c(-c3cnc4c(n3)-c3cc5c(F)cccc5n3CC4)cc12 [Example 44, 5-(11-fluoro-5,6-dihydropyrazino[2′,3′:3,4]pyrido[1,2-a]indol-2-yl)-2-(4-fluorophenyl)-N-methyl-6-(N-methylmethylsulfonamido)benzofuran-3-carboxamide] | 1.76 | 1.87 |  |  |
| CNC(=O)c1c(-c2ccc(F)cc2)oc2cc(N(C)S(C)(=O)=O)c(-c3ccc4c(n3)-c3cc5c(F)cccc5n3C(CO)C4)cc12 (stereo not drawn) [Example 53] |  |  | 8.07 | 4.03 |
| CNC(=O)c1c(-c2cncs2)oc2cc(N(C)S(C)(=O)=O)c(-c3ccc4c(n3)-c3cc5c(F)cccc5n3CC4)cc12 [Example 37] | 9.83 | 14.2 |  |  |
| CNC(=O)c1c(-c2cnn(-c3ccccc3)c2)oc2cc(N(C)S(C)(=O)=O)c(-c3ccc4c(n3)-c3cc5c(F)cccc5n3CC4)cc12 [Example 18] | 5480 | 296 |  |  |
| CNC(=O)c1c(-c2ccc(F)cc2)oc2cc(N(C)S(C)(=O)=O)c(-c3ccc4c(n3)-c3cc5c(F)cccc5n3CC=C4)cc12 [Example 98, 5-(12-fluoro-7H-pyrido[2′,3′:3,4]azepino[1,2-a]indol-2-yl)-2-(4-fluorophenyl)-N-methyl-6-(N-methylmethylsulfonamido)benzofuran-3-carboxamide] | 4.17 | 8.65 |  |  |
| CNC(=O)c1c(-c2cnn3c2CCCC3)oc2cc(N(C)S(C)(=O)=O)c(-c3ccc4c(n3)-c3cc5c(F)cccc5n3CC4)cc12 [Example 21] | 149 | 34.3 |  |  |
| CNC(=O)c1c(-c2ccc(F)cc2)oc2cc(N(C)S(C)(=O)=O)c(-c3cc4c(cn3)CCn3c-4cc4c(F)cccc43)cc12 [Example 39, 5-(11-fluoro-5,6-dihydroindolo[2,1-a][2,6]naphthyridin-2-yl)-2-(4-fluorophenyl)-N-methyl-6-(N-methylmethylsulfonamido)benzofuran-3-carboxamide] | 2.71 | 2.83 |  |  |
| CNC(=O)c1c(-c2ccc(F)cc2C)oc2cc(N(C)S(C)(=O)=O)c(-c3ccc4c(n3)-c3cc5c(F)cccc5n3CC4)cc12 [Example 10] | 9.44 | 10.7 |  |  |
| CNC(=O)c1c(-c2ccc(F)cc2F)oc2cc(N(C)S(C)(=O)=O)c(-c3ccc4c(n3)-c3cc5c(F)cccc5n3CC4)cc12 [Example 30, 2-(2,4-difluorophenyl)-5-(11-fluoro-5,6-dihydroindolo[1,2-h][1,7]naphthyridin-2-yl)-N-methyl-6-(N-methylmethylsulfonamido)benzofuran-3-carboxamide] | 2.49 | 3.81 |  |  |
| CNC(=O)c1c(-c2ccc(F)cc2F)oc2cc(N(C)S(C)(=O)=O)c(-c3ccc4c(n3)-c3cc5c(F)cccc5n3C(CN3CC(F)C3)C4)cc12 (stereo not drawn) [Example 95] | 8.91 | 7.53 |  |  |
| CNC(=O)c1c(-c2ccc(F)cc2)oc2cc(N(C)S(C)(=O)=O)c(-c3ccc4c(n3)-c3cc5c(F)cccc5n3C(CCO)C4)cc12 (stereo not drawn) [Example 65, 5-(11-fluoro-6-(2-hydroxyethyl)-5,6-dihydroindolo[1,2-h][1,7]naphthyridin-2-yl)-2-(4-fluorophenyl)-N-methyl-6-(N-methylmethylsulfonamido)benzofuran-3-carboxamide] | 3.62 | 3.96 |  |  |
| CNC(=O)c1c(-c2ccc(F)cc2)oc2cc(N(C)S(C)(=O)=O)c(-c3ccc4c(n3)-c3cc5ncccc5n3CC4)cc12 [Example 77] | 27.9 | 4.03 |  |  |
| CNC(=O)c1c(-c2ccc(F)cc2)oc2cc(N(C)S(C)(=O)=O)c(-c3ccc4c(n3)-c3cc5c(F)cccc5n3C(CF)C4)cc12 (stereo not drawn) [Example 96, 5-(11-fluoro-6-(fluoromethyl)-5,6-dihydroindolo[1,2-h][1,7]naphthyridin-2-yl)-2-(4-fluorophenyl)-N-methyl-6-(N-methylmethylsulfonamido)benzofuran-3-carboxamide] | 7.89 | 3.18 |  |  |

Source: patent publication US9243002B2, “Tetracyclic heterocycle compounds and methods of use thereof for the treatment of hepatitis C” (priority 2013, dated 2016)
